Molecules are shown by their SMILES.

What all share (test): Kinase panel profiling at 1 µmol/L (mobility shift assay, Carna)
Type in all cases: biochemical
Common to all, as to settings: 1 µmol/L of BTK inhibitor

One test deals with T1, WNK3 (Homo sapiens, UniProt Q9BYP7).
T1 construct: purchased Carna Biosciences

Another test deals with T2, EEF2K (Homo sapiens, UniProt O00418).
T2 construct: purchased Carna Biosciences
T2 sequence (O00418 1-725): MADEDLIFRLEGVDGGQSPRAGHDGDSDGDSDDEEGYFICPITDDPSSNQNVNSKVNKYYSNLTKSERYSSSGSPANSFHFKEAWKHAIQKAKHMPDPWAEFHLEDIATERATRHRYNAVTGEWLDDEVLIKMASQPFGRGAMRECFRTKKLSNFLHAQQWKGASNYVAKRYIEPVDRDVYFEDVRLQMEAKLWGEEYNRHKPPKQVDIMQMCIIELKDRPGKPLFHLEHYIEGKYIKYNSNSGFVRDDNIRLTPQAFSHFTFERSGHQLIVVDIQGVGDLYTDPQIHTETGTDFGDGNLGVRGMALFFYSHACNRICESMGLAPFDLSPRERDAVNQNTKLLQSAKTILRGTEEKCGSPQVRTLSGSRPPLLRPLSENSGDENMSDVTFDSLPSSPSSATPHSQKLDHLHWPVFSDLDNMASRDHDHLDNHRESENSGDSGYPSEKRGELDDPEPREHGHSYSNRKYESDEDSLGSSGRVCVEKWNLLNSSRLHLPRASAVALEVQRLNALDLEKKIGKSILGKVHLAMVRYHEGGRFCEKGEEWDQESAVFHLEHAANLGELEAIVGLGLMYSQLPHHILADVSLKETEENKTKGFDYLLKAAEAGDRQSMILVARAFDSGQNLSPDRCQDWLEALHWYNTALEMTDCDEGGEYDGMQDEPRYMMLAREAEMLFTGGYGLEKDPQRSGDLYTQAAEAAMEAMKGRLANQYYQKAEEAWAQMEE

Another test has as its target T3, IKKα (Homo sapiens, UniProt O15111).
T3 construct: purchased Carna Biosciences
T3 sequence (O15111 1-745): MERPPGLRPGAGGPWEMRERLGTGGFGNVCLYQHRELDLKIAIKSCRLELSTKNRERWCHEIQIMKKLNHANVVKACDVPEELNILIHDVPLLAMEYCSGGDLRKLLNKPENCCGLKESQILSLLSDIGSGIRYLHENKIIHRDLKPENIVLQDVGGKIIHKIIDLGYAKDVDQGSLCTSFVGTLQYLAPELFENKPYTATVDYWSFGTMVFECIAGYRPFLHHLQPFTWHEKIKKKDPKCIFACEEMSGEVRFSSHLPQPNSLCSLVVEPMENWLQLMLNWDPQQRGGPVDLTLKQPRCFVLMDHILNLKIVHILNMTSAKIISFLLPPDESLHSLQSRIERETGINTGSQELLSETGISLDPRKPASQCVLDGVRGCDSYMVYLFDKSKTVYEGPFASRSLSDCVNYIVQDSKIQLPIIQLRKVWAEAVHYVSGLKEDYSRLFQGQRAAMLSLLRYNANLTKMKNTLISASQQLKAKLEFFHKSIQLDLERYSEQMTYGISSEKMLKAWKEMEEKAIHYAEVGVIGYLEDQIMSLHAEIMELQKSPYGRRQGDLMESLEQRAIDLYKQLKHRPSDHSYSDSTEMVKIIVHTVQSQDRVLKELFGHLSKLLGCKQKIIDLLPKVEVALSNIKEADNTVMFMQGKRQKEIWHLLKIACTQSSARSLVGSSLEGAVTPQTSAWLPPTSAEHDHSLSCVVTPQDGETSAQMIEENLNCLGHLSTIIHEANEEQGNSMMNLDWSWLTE

Another test deals with T4, LYNa (Homo sapiens, UniProt P07948).
T4 construct: purchased Carna Biosciences

The target in a further test is T5, AMPKα1/β1/γ1 (Homo sapiens, UniProt Q13131).
T5 construct: purchased Carna Biosciences

The target of another test is T6, TSSK3 (Homo sapiens, UniProt Q96PN8).
T6 construct: purchased Carna Biosciences
T6 sequence (Q96PN8 1-268): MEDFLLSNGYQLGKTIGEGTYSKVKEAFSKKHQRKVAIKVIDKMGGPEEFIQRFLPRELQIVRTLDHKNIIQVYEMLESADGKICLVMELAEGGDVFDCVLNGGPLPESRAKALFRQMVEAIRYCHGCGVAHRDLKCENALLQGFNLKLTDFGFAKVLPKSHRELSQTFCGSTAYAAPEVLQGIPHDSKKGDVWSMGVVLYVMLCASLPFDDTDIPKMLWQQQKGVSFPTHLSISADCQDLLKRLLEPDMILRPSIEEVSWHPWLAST

Another test concerns the target T7, EPHA5 (Homo sapiens, UniProt P54756).
T7 construct: purchased Carna Biosciences

Another test deals with T8, IKKβ (Homo sapiens, UniProt O14920).
T8 construct: purchased Carna Biosciences
T8 sequence (O14920 1-756): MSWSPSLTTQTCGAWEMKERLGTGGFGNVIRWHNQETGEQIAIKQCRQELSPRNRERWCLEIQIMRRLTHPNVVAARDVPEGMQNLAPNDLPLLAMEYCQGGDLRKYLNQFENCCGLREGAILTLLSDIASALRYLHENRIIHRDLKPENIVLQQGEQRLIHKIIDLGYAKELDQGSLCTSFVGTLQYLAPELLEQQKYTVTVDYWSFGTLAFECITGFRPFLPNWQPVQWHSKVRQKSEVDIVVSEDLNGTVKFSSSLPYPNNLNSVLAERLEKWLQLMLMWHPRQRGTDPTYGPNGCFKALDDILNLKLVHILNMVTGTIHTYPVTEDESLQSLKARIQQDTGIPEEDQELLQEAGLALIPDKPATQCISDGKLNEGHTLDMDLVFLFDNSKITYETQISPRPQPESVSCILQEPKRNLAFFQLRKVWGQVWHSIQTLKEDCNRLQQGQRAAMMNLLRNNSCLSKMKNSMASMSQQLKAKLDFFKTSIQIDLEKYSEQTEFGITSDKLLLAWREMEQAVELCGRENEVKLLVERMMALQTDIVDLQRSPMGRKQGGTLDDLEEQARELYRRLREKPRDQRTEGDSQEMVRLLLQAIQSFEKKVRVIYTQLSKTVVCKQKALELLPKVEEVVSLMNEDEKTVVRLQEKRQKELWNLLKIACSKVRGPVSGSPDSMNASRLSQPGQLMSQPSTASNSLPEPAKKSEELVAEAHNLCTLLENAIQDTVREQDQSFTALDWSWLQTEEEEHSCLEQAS

Another test concerns the target T9, MET (Homo sapiens, UniProt P08581).
T9 construct: purchased Carna Biosciences

T7 sequence (P54756 25-1037): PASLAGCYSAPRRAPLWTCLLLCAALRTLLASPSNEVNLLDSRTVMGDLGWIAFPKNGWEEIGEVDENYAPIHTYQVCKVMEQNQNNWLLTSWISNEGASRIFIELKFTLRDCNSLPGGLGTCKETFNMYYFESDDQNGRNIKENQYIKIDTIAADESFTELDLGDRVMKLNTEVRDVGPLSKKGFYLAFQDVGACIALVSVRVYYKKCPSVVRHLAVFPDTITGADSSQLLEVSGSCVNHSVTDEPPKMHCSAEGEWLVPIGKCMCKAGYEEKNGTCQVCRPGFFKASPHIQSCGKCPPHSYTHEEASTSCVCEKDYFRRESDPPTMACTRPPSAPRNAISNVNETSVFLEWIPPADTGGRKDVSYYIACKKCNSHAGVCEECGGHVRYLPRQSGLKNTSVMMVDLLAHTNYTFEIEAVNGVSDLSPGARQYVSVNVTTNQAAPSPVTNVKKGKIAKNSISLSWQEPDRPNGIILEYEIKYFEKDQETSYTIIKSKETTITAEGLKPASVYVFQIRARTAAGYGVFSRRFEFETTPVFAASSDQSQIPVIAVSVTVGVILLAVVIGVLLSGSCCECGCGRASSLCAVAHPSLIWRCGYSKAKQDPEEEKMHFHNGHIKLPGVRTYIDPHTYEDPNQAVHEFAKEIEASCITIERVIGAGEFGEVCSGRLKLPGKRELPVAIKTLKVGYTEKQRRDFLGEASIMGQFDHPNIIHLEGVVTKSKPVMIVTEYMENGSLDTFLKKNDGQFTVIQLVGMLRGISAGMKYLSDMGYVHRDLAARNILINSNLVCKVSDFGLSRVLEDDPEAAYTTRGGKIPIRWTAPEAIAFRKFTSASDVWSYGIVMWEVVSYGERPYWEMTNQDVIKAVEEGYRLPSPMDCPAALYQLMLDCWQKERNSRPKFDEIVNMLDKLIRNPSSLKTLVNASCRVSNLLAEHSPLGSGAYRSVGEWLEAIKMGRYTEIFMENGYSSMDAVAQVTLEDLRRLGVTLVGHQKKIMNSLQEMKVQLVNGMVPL
T9 sequence (P08581 25-1390): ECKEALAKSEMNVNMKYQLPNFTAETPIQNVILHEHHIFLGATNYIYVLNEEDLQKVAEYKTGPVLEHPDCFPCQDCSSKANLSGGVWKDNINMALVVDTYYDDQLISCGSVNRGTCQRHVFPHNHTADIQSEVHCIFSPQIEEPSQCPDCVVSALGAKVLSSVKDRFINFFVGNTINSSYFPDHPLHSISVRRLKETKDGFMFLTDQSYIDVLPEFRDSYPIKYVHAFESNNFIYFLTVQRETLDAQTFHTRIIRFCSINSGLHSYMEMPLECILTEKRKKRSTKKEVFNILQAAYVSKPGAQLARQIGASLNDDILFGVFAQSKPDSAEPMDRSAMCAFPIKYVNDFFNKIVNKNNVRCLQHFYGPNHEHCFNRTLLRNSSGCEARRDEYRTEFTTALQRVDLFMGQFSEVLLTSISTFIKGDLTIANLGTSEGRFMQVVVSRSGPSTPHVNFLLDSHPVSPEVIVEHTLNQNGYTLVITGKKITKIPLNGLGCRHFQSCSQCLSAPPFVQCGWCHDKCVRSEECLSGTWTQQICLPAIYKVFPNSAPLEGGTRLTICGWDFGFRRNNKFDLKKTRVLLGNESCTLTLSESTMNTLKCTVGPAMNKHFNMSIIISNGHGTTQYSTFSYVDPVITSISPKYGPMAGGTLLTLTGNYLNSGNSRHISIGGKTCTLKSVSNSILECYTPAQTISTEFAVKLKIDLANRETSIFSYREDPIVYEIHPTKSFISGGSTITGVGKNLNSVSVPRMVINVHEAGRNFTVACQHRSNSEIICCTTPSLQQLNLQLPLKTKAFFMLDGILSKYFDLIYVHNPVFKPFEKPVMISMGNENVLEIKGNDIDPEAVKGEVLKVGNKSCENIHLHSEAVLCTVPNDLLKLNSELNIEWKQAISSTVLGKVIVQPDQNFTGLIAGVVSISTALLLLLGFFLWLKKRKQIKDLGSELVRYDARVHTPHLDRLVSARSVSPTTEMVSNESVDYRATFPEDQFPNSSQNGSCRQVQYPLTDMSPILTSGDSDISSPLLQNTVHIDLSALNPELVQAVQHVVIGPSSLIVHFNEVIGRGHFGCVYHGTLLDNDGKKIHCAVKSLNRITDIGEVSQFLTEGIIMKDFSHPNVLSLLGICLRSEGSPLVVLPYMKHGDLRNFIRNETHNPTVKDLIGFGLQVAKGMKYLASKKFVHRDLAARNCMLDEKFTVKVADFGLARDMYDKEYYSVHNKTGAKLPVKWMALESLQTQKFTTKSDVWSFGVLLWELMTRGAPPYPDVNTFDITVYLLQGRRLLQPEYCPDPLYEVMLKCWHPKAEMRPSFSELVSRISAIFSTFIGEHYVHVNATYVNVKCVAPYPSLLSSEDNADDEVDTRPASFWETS
T4 sequence (P07948 whole entry): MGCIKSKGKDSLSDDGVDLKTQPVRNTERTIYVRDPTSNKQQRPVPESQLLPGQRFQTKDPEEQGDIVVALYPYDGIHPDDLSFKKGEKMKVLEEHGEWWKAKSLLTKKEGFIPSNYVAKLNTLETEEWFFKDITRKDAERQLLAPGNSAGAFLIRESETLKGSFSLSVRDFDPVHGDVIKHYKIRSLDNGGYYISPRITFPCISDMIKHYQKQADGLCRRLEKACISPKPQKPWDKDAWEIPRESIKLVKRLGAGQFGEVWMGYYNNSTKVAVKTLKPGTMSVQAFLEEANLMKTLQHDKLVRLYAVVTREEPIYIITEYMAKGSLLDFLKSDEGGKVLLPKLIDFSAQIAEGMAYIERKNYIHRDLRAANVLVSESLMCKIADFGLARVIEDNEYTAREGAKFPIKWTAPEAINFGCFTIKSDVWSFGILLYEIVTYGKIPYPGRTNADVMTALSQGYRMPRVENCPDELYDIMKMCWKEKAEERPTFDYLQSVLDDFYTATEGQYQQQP
T1 sequence (Q9BYP7 whole entry): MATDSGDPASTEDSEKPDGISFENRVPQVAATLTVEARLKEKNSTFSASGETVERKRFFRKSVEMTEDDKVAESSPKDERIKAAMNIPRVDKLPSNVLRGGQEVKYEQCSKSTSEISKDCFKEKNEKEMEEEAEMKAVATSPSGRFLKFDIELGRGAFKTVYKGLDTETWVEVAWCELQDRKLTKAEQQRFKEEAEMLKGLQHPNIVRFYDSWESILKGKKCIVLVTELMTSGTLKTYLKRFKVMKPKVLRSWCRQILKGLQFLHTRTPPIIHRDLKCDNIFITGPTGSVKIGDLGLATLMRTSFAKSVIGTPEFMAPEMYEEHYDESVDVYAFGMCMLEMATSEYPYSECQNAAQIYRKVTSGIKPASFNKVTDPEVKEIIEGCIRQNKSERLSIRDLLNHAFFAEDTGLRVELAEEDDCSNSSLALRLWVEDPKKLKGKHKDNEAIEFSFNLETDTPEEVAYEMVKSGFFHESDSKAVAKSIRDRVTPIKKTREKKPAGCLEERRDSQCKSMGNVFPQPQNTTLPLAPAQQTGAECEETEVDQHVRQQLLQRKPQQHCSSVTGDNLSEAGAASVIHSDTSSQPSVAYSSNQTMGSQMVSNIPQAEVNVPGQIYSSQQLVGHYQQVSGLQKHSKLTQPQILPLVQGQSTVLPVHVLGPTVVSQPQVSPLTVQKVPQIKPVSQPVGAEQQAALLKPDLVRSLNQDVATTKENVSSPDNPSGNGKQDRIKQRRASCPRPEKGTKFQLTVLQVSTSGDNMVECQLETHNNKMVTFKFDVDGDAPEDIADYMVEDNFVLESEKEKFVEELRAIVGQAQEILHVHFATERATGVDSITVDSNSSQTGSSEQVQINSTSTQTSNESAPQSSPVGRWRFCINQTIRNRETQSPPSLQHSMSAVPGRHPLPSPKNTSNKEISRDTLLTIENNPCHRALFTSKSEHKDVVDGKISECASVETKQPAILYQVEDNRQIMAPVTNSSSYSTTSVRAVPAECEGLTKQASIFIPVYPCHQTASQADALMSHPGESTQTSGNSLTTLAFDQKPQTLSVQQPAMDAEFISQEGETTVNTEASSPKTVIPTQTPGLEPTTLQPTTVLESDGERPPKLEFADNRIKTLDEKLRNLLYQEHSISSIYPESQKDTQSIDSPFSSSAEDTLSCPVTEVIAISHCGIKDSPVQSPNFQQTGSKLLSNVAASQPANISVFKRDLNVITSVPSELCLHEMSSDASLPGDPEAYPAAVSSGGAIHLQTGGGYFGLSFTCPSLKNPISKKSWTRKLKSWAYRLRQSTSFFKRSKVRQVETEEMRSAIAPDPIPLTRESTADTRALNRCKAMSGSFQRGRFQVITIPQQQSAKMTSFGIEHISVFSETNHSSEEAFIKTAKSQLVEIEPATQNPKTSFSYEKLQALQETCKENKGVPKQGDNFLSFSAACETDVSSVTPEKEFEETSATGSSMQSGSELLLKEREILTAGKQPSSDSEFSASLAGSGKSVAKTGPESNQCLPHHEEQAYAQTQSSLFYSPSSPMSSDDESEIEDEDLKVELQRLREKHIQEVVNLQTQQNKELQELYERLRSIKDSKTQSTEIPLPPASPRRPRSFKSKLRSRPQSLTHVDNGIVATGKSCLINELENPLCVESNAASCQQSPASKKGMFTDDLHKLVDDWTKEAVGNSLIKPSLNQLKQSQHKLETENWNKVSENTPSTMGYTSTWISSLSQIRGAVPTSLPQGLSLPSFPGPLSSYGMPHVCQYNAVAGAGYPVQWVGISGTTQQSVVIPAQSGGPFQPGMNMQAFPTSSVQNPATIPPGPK

For `CC#CC(=O)N1CCC[C@H]1c1nc(-c2ccc(C(=O)Nc3ccccn3)cc2)c2c(N)nccn12` [acalabrutinib], the “Percentage inhibition of kinase enzyme activity” value (from here on “Percentage inhibition”) on WNK3 is recorded as -0.26%; at EEF2K, -12.14%; at IKKα it was -1.45%; at LYNa, 1.93%; at AMPKα1/β1/γ1 it was -4.92%; on TSSK3, -7.85%. The “Percentage inhibition” value at EPHA5 is reported as -1.17%; on IKKβ, -6.98%; on MET, 3.91%.

As to `COc1ccc(F)cc1C(=O)NCc1ccc(-c2nn([C@@H](C)C(F)(F)F)c(N)c2C(N)=O)cc1` [pirtobrutinib], the “Percentage inhibition” value on WNK3 is given as 2.54%; on EEF2K, -0.12%; at IKKα, -16.22%; at LYNa, 46.22%; at AMPKα1/β1/γ1, -7.93%; at TSSK3, -1.40%. For the same compound, the “Percentage inhibition” value at EPHA5 worked out at 0.45%; at IKKβ, 0.58%; on MET, 1.44%.

With `C=CC(=O)N1CCC[C@@H](n2nc(-c3ccc(Oc4ccccc4)cc3)c3c(N)ncnc32)C1` [ibrutinib], the “Percentage inhibition” value on WNK3 is 6.84%; at EEF2K, 1.15%; on IKKα it was 4.34%; at LYNa it was 98.69%; at TSSK3 it was -3.87%; at EPHA5, 25.73%. Moreover, the figures for the “Percentage inhibition” value at IKKβ and on MET were -0.35% and 11.55%, respectively.

With `O=C(c1ccc(Oc2ccccc2)cc1Cl)c1c[nH]c2ncnc(N[C@@H]3CC[C@@H](CO)OC3)c12` [nemtabrutinib], the “Percentage inhibition” value at WNK3 came to 52.96%; at EEF2K, 0.24%; on IKKα, 1.80%; at LYNa it was 100.76%; on AMPKα1/β1/γ1, 12.21%; at TSSK3, 2.56%. Also, the entries for the “Percentage inhibition” value on EPHA5, at IKKβ and on MET were 100.38%, -1.18% and 42.98%, respectively.

Regarding `C=CC(=O)N1CCC([C@@H]2CCNc3c(C(N)=O)c(-c4ccc(Oc5ccccc5)cc4)nn32)CC1` [zanubrutinib], the entries for the “Percentage inhibition” value on IKKα, on EPHA5 and at MET were -9.91%, 13.96% and 1.41%, respectively.

For the origin of these results see paper PMC12586182 (Frontiers in Oncology, 2025).
